Reference: US20250027863A1, “METHOD OF CHARACTERIZATION OF RELEASE OF POORLY SOLUBLE MATERIALS AND UPTAKE IN COMPLEX LIQUIDS” (Zennova LLC, priority 2021, published 2025)

Experiment: MCRR in vitro release test of ibuprofen solution (flow medium) to external medium
Type: physicochemical

**Q.** What does the source list for `CC(C)Cc1ccc(C(C)C(=O)O)cc1` (centres unmarked) [ibuprofen]?
**A.** slope of ln (1-fraction released) vs. the exposure time (exposure time in seconds, 15-300 seconds): −0.0102; percent released (ibuprofen solution in 25 mM phosphate buffer as flow medium, exposure times up to 300 seconds (test time 291.3 minutes), 20° C, triplicate): ~100%
